Structures can show the parent of a compound that is named as a salt. One block for each compound: values may come before it.
Legend:
DNA synthesis = conditions: cited from earlier work
[1] = decomposition half-life and nitric oxide release in aqueous buffer; assay type: physicochemical; conditions: pH 7 and 25° C.; for half-life: aqueous buffer
Description: The resulting gel was treated with a few drops of methanol until a homogeneous solution was obtained. The solution was transferred into a micro-Parr bottle and bubbled with nitrogen for 5 min, followed by exposure to 40 psi of NO for 72 h.
The system was degassed and charged with 40 psi of nitric oxide.
The system was evacuated, charged with 40 psi of nitric oxide and kept at 25° C. for 48 h. The white crystalline product was collected by filtration and washed with cold methanol as well as with copious amounts of ether. […] This measurement was based on the loss of the 252-nm chromophore in the ultraviolet spectrum.

[2] = system: RPMI 1846 melanotic melanoma cells adhering to rat mesenteric postcapillary venules; experiment: adhesion of melanoma tumor cells to isolated postcapillary venules; assay type: cell-based, Syrian hamster (tumor cells); Sprague-Dawley rat (vessels); conditions: 1 mM DETA/NO for 30 min, FIG. 1
Description: RPMI 1846, a melanotic melanoma of a Syrian hamster, was obtained from the American Type Culture Collection, Rockville, Md., and grown in McCoy's 5A medium (GIBCO, Grand Island, N.Y.) supplemented with 20% fetal bovine serum (GIBCO, Grand Island, N.Y.) at 37° C. in a humidified 5% CO2 atmosphere. […]
A segment of bowel and attached mesentery was excised and placed in a dissecting chamber containing ice-cold, pH 7.4 PSS (same as APSS but without added serum). […] A television camera mounted on the microscope was used to project the image onto a television monitor and the images were recorded using a videocassette recorder. […]
After a 30-min stabilization period, the vessel was perfused with tumor cell suspension. […] The number of cells sitting on the microvessel was observed and recorded. […] Five minutes later, the number of tumor cells remaining adherent to the vessel wall was counted and recorded. The percentage of adherent cells was calculated by dividing the number of tumor cells remaining adherent to the vessel wall after flow was resumed for 5 minutes by the total number of cells setting on the vessel wall when flow was interrupted. […]

[3] = via exhaustion of the relevant enzyme/cofactor system; cited from earlier work
[4] = cited from earlier work

Compound: CC(=O)N[C@H](C(=O)O)C(C)(C)SN=O (racemic) [S-nitroso-N-acetylpenicillamine]
inhibition of DNA synthesis (DNA synthesis): effective at inhibiting DNA synthesis

half-life [1]: 5 min
Compound: CCOC(=O)N1CCN([N+]([O-])=NO)CC1 [1-(4-carbethoxypiperazin-1-yl)-1-oxo-2-hydroxydiazene, sodium salt]

Compound: NCCN(CCN)[N+]([O-])=NO [DETA/NO]
effect on LPS-enhanced tumor cell adhesion to postcapillary venules ([2]; LPS-treated venules): completely blocked the enhancing effect of LPS on tumor cell adhesion | effect on tumor cell adhesion to untreated venules ([2]; untreated venules, P<0.05): decreased tumor cell adhesion to untreated venules

half-life [1]: 6.9 min | NO produced per mole of test agent [1]: 1.72 moles of NO per mole of test agent
Compound: CSCC[C@H](NC(C)=O)C(=O)N1CCN([N+]([O-])=NO)CC1 [Example V, 1-[4-(N-acetyl-L-methionyl)piperazin-1-yl]-1-oxo-2-hydroxydiazene, sodium salt]

Compound: O=[N+]([O-])OCC(CO[N+](=O)[O-])O[N+](=O)[O-] [glyceryl trinitrate]
tolerance [3]: tolerance to glyceryl trinitrate can develop

Compound: Nitric oxide
solubility in aqueous media [4]: limited solubility in aqueous media

Source: patent publication US5700830A, “Use of nitric oxide-releasing agents for reducing metastasis risk” (The United States of America as represented by the …, priority 1994, dated 1997)
